≈ marks a conversion by molar mass, not a printed value. Calls of active or inactive are those of the source. No cut-off for these calls is given here.
How the values were obtained:
in vitro [1] = conditions: mouse, liver microsomes
Enterococcus faecium [2] = assay: Antibacterial activity against Vancomycin-resistant Enterococcus faecium assessed as inhibition of visible growth incubated for 20 to 24 hrs by microbroth serial dilution assay; type: functional; conditions: time 20-24 hrs, read-out: MIC100
in vitro [3] = conditions: human, liver microsomes
Enterococcus faecalis = assay: Antibacterial activity against Enterococcus faecalis assessed as inhibition of visible growth incubated for 20 to 24 hrs by microbroth serial dilution assay; type: functional; conditions: time 20-24 hrs, read-out: MIC100
[4] = target: Voltage-gated inwardly rectifying potassium channel KCNH2 (Homo sapiens, UniProt Q12809); assay: Inhibition of hERG expressed in HEK293 cells assessed as tail current measured after 8 mins by automated whole-cell Qpatch Clamp assay
Voltage-gated inwardly rectifying potassium channel KCNH2, sequence (Q12809 whole entry): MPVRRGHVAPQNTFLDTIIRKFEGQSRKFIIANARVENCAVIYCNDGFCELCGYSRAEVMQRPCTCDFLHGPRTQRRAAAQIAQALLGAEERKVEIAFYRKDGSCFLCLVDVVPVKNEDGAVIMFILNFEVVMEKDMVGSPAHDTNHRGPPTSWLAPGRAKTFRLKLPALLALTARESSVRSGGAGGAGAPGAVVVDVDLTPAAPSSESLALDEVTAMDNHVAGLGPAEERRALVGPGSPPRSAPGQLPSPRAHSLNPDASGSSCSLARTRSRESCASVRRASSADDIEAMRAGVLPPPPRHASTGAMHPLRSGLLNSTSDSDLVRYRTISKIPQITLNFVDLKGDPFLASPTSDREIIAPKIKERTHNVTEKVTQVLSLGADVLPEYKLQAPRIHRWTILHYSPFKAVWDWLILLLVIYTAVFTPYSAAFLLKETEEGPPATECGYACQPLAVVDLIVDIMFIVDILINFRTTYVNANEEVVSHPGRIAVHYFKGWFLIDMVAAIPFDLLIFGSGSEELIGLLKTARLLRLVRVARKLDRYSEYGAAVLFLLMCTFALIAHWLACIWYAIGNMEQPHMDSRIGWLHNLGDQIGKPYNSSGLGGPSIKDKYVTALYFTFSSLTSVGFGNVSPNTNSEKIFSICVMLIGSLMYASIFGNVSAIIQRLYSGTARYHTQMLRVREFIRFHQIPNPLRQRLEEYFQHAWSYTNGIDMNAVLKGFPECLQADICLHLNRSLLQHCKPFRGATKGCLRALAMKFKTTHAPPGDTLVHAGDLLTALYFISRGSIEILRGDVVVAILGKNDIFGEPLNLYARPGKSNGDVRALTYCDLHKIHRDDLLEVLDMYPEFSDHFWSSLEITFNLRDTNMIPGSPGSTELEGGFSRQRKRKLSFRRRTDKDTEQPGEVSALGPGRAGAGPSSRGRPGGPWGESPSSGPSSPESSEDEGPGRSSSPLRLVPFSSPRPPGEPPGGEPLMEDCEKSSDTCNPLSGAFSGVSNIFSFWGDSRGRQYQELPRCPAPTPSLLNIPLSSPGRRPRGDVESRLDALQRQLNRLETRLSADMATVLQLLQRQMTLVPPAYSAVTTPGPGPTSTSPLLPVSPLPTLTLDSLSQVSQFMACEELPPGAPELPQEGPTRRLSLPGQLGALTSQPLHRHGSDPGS

Listeria = assay: Antibacterial activity against Listeria assessed as inhibition of visible growth incubated for 20 to 24 hrs by microbroth serial dilution assay; type: functional, organism-based; conditions: time 20-24 hrs
in vitro [5] = conditions: mouse, liver microsomes; remark: listed apart in the source
Enterococcus faecium [6] = assay: Antibacterial activity against Linezolid/Ampicillin/ciprofloxacin/Vancomycin-resistant Enterococcus faecium assessed as inhibition of visible growth incubated for 20 to 24 hrs by microbroth serial dilution assay; type: functional; conditions: time 20-24 hrs, read-out: MIC100
in vitro [7] = conditions: human, liver microsomes; remark: listed apart in the source
Staphylococcus aureus [8] = assay: Antibacterial activity against multi drug-resistant Staphylococcus aureus USA300 FPR3757 assessed as inhibition of visible growth incubated for 20 to 24 hrs by microbroth serial dilution assay; type: functional; conditions: time 20-24 hrs, read-out: MIC100
Streptococcus pneumoniae = assay: Antibacterial activity against Streptococcus pneumoniae assessed as inhibition of visible growth incubated for 20 to 24 hrs by microbroth serial dilution assay; type: functional; conditions: time 20-24 hrs, read-out: MIC100
[9] = tested on: Staphylococcus epidermidis; assay: Antibacterial activity against Staphylococcus epidermidis assessed as inhibition of visible growth incubated for 20 to 24 hrs by microbroth serial dilution assay; type: functional, organism-based; conditions: time 20-24 hrs
[10] = Inhibition of P-gp efflux in MDCKII-MDR1 cells using calcein-AM as substrate assessed as intracellular calcein fluorescence preincubated for 15 mins followed by substrate addition and measured by fluorescence based assay; type: cell-based; conditions: Canis lupus familiaris
hERG (KCNH2) = hERG (KCNH2) (Homo sapiens, UniProt Q12809); assay: Inhibition of hERG expressed in HEK293 cells assessed as tail current at 60 uM measured after 8 mins by automated whole-cell Qpatch Clamp assay relative to control; conditions: HEK293 cells that express hERG
hERG (KCNH2), sequence (Q12809 whole entry): as above

Escherichia coli = assay: Antibacterial activity against Escherichia coli assessed as inhibition of visible growth incubated for 20 to 24 hrs by microbroth serial dilution assay; type: functional, organism-based; conditions: time 20-24 hrs
Staphylococcus aureus [11] = assay: In vivo antibacterial activity against methicillin susceptible Staphylococcus aureus ATCC 25923 infected sepsis/peritonitis infection model assessed as reduction in bacterial burden in blood at 80 mg/kg, sc twice at 1 hr and 3 hrs measured after 6 hrs; type: functional
Staphylococcus aureus [12] = assay: In vivo antibacterial activity against methicillin susceptible Staphylococcus aureus ATCC 25923 infected sepsis/peritonitis infection model assessed as reduction in bacterial burden in peritoneum at 80 mg/kg, sc twice at 1 hr and 3 hrs measured after 6 hrs; type: functional
Staphylococcus aureus [13] = assay: (§1) Induction of resistant development in -(6-(6-(Piperazin-1-y1)-9H-purin-9-y)methyl)pyridin-3-y1)-1H-1,2,3-triazol-1-yl)-22-deoxypleuromutilin-16 passages resistance developed Staphylococcus aureus USA300 FPR3757 assessed as fold increase in MIC at sub-MIC concentration measured after 22 passages with conjugate by serial passage assay; type: functional
Staphylococcus aureus [14] = assay: as §1, with “after 25” for “after 22”; type: functional
Staphylococcus aureus [15] = assay: as §1, with “after 9” for “after 22”; type: functional
Staphylococcus aureus [16] = assay: Induction of resistant development in linezolid 5 passages resistance developed Staphylococcus aureus USA300 FPR3757 assessed as fold increase in MIC at sub-MIC concentration measured after 18 passages with conjugate by serial passage assay; type: functional
Staphylococcus aureus [17] = assay: Induction of resistant development in lefamulin 5 passages resistance developed Staphylococcus aureus USA300 FPR3757 assessed as fold increase in MIC at sub-MIC concentration measured after 28 passages with conjugate by serial passage assay; type: functional
Staphylococcus aureus [18] = assay: Induction of resistant development in lefamulin 5 passages resistance developed Staphylococcus aureus USA300 FPR3757 assessed as fold increase in MIC at sub-MIC concentration measured after 13 passages with conjugate by serial passage assay; type: functional
Staphylococcus aureus [19] = assay: Induction of resistant development in lefamulin 5 passages resistance developed Staphylococcus aureus USA300 FPR3757 assessed as fold increase in MIC at sub-MIC concentration measured after 18 passages with conjugate by serial passage assay; type: functional
Staphylococcus aureus [20] = assay: as §1, with “after 28” for “after 22”; type: functional
Staphylococcus aureus [21] = assay: Induction of resistant development in lefamulin 5 passages resistance developed Staphylococcus aureus USA300 FPR3757 assessed as fold increase in MIC at sub-MIC concentration measured after 22 passages with conjugate by serial passage assay; type: functional
Staphylococcus aureus [22] = assay: as §1, with “after 5” for “after 22”; type: functional
Staphylococcus aureus [23] = assay: Induction of resistant development in linezolid 5 passages resistance developed Staphylococcus aureus USA300 FPR3757 assessed as fold increase in MIC at sub-MIC concentration measured after 28 passages with conjugate by serial passage assay; type: functional
Staphylococcus aureus [24] = assay: Induction of resistant development in lefamulin 5 passages resistance developed Staphylococcus aureus USA300 FPR3757 assessed as fold increase in MIC at sub-MIC concentration measured after 25 passages with conjugate by serial passage assay; type: functional
Staphylococcus aureus [25] = assay: Antibacterial activity against multi drug-resistant Staphylococcus aureus USA300 FPR3757 assessed as reduction in bacterial growth at 1 times of MIC concentration measured after 24 hrs by time-kill assay; type: functional, organism-based
Staphylococcus aureus [26] = assay: as §1, with “after 13” for “after 22”; type: functional
Staphylococcus aureus [27] = assay: Induction of resistant development in linezolid 5 passages resistance developed Staphylococcus aureus USA300 FPR3757 assessed as fold increase in MIC at sub-MIC concentration measured after 22 passages with conjugate by serial passage assay; type: functional
Staphylococcus aureus [28] = assay: Induction of resistant development in linezolid 5 passages resistance developed Staphylococcus aureus USA300 FPR3757 assessed as fold increase in MIC at sub-MIC concentration measured after 25 passages with conjugate by serial passage assay; type: functional
Staphylococcus aureus [29] = assay: Induction of resistant development in linezolid 5 passages resistance developed Staphylococcus aureus USA300 FPR3757 assessed as fold increase in MIC at sub-MIC concentration measured after 13 passages with conjugate by serial passage assay; type: functional
Staphylococcus aureus [30] = assay: as §1, with “after 18” for “after 22”; type: functional
Staphylococcus aureus [31] = assay: Induction of resistant development in linezolid 5 passages resistance developed Staphylococcus aureus USA300 FPR3757 assessed as fold increase in MIC at sub-MIC concentration measured after 9 passages with conjugate by serial passage assay; type: functional
Staphylococcus aureus [32] = assay: Induction of resistant development in linezolid 5 passages resistance developed Staphylococcus aureus USA300 FPR3757 assessed as fold increase in MIC at sub-MIC concentration measured after 5 passages with conjugate by serial passage assay; type: functional
Staphylococcus aureus [33] = assay: Induction of resistant development in lefamulin 5 passages resistance developed Staphylococcus aureus USA300 FPR3757 assessed as fold increase in MIC at sub-MIC concentration measured after 5 passages with conjugate by serial passage assay; type: functional
Staphylococcus aureus [34] = assay: Induction of resistant development in lefamulin 5 passages resistance developed Staphylococcus aureus USA300 FPR3757 assessed as fold increase in MIC at sub-MIC concentration measured after 9 passages with conjugate by serial passage assay; type: functional

SMILES: C=C[C@]1(C)C[C@@H](OC(=O)Cn2cc(-c3ccc(Cn4cnc5c(N)ncnc54)cc3)nn2)[C@]2(C)[C@H](C)CC[C@]3(CCC(=O)[C@H]32)[C@@H](C)[C@@H]1O
- CLint scaled at 0.5 h, 1 µM (in vitro [1]): > 600 L/h/kg
- MIC (Enterococcus faecium [2]): 0.12 µg/mL (≈ 0.184 µM)
- CLint scaled at 0.5 h, 1 µM (in vitro [3]): 305 L/h/kg
- MIC (Enterococcus faecalis): 0.25 µg/mL (≈ 0.383 µM)
- IC50 [4]: > 200 µM
- Activity (Listeria): inactive
- half-life at 0.5 h, 1 µM (in vitro [5]): < 0.5 min
- MIC (Enterococcus faecium [6]): 0.12 µg/mL (≈ 0.184 µM)
- half-life at 0.5 h, 1 µM (in vitro [7]): 1.2 min
- MIC (Staphylococcus aureus [8]): 0.03 µg/mL (≈ 0.046 µM)
- MIC (Streptococcus pneumoniae): 0.5 µg/mL (≈ 0.766 µM)
- Activity [9]: inactive
- IC50 [10]: 36 µM
- inhibition at 8 min, 60 µM (hERG (KCNH2)): 26.3%
- Activity (Escherichia coli): inactive

SMILES: C=C[C@]1(C)C[C@@H](OC(=O)Cn2cc(-c3ccc(Cn4cnc5c(N6CCNCC6)ncnc54)nc3)nn2)[C@]2(C)[C@H](C)CC[C@]3(CCC(=O)[C@H]32)[C@@H](C)[C@@H]1O.Cl.Cl
- Activity (Staphylococcus aureus [11]): 2 log10FFU/ml
- Activity (Staphylococcus aureus [12]): 1 log10FFU/ml

SMILES: C=C[C@]1(C)C[C@@H](OC(=O)Cn2cc(-c3ccc(Cn4cnc5c(N6CCNCC6)ncnc54)nc3)nn2)[C@]2(C)[C@H](C)CC[C@]3(CCC(=O)[C@H]32)[C@@H](C)[C@@H]1O
- fold change (FC) (Staphylococcus aureus [13]): 32
- fold change (FC) (Staphylococcus aureus [14]): 64
- fold change (FC) (Staphylococcus aureus [15]): 8
- fold change (FC) (Staphylococcus aureus [16]): 8
- fold change (FC) (Staphylococcus aureus [17]): 128
- fold change (FC) (Staphylococcus aureus [18]): 32
- fold change (FC) (Staphylococcus aureus [19]): 32
- fold change (FC) (Staphylococcus aureus [20]): 64
- fold change (FC) (Staphylococcus aureus [21]): 32
- fold change (FC) (Staphylococcus aureus [22]): 8
- fold change (FC) (Staphylococcus aureus [23]): 32
- fold change (FC) (Staphylococcus aureus [24]): 64
- Activity (Staphylococcus aureus [25]): inactive
- fold change (FC) (Staphylococcus aureus [26]): 16
- fold change (FC) (Staphylococcus aureus [27]): 32
- fold change (FC) (Staphylococcus aureus [28]): 32
- fold change (FC) (Staphylococcus aureus [29]): 16
- fold change (FC) (Staphylococcus aureus [30]): 32
- fold change (FC) (Staphylococcus aureus [31]): 8
- fold change (FC) (Staphylococcus aureus [32]): 4
- fold change (FC) (Staphylococcus aureus [33]): 4
- fold change (FC) (Staphylococcus aureus [34]): 16

From ChEMBL document CHEMBL5518206, “Hit-to-Lead Identification and Validation of a Triaromatic Pleuromutilin Antibiotic Candidate” (J Med Chem, 2024)
